For assay [1], the system named is human peripheral myelin protein 22 (PMP22). Nature of the assay: HTS of FDA-approved drug library for compounds that alter phase partitioning of PMP22 in GPMVs. Conditions: for shift of PMP22 phase preference in favor of the ordered (raft) phase / hit class in PMP22 screen: 10 micromolar; for shift of PMP22 phase preference in favor of the ordered (raft) phase: control value 78%, reproducible at 1 micromolar; for hit class in PMP22 screen: 1184 compound library of FDA-approved drugs; for effect on relative ordered (raft) vs. disordered phase proportions: in the absence or presence of PMP22. An excerpt: By way of example and not limitation, in some embodiments PMP22 containing a MYC epitope sequence was employed in the GPMVs (hereafter referred to as “PMP22”, such as by expressing a MYC-Tagged PMP22 in Hela cells, followed by formation of PMP22 containing GPMVs, followed by addition of a commercial fluorescently labeled anti-MYC antibody to confer fluorescence to PMP22 in GPMVs, thereby making PMP22 detectable to enable its quantitation in the raft phase domains versus in the non-raft phase domains. See Marinko et al. (2020) Proc Natl Acad Sci USA 117(25):14168-14177.
The assay was scaled up to carry out high throughput screens (HTS). The strategy for these screens is similar to those outlined for our approach to finding compounds that shift the raft vs. non-raft phase domain distribution in GPMVs, except that in this case we were interested in discovering compounds that either shift PMP22 out of rafts or enhance its partitioning into the ordered raft phase domain. This pilot HTS screen involved the 1184 compound library of FDA-approved drugs at a concentration of 10 micromolar each and was carried out in the Vanderbilt HTS Core. We predicted that select compounds might sometimes change not only the phase partitioning of PMP22, but also change the actual amounts of ordered (raft) versus disordered phase domains that are present. We also wondered whether PMP22 and certain compounds might act synergistically (through any one of several possible mechanisms) to alter membrane phase behavior. This could potentially cause the compounds to have different effects on the ratio of raft versus disordered domains in the absence relative to the presence of the PMP22 protein. To test these possibilities, we compared the results of our screen to the results of preliminary screens carried out on the same compounds in GPMVs lacking expressed PMP22. This allowed us to directly evaluate the effects of the compounds under both conditions. The plots shown in FIGS. 28A and 28B, as well as additional data not shown reveal several classes of PMP22-impacting hits from this 1184 compound library: […]

In another assay the test system is GPMVs from HeLa cells. Nature of the assay: Di4 fluorescence lifetime imaging (lipid packing in GPMVs). Further details: species or system human. Conditions: TLCK 1 μM, C6-ceramide 1 μM, MβCD 5 mM. The text has this:
It was also of interest how TLCK and C6-ceramide impact other properties of the membrane compared to treatments such as cholesterol depletion that are commonly used to disrupt rafts in cells (Zidovetzki & Levitan, 2007). To test this, we examined their effects on membrane lipid packing and fluidity using a fluorescent reporter of membrane packing, Di-4-[…] (Di4) (Jin et al., 2006; Owen et al., 2006; Sezgin et al., 2014; Levental et al., 2020b; Lorent et al., 2020). As a control, we subjected GPMVs to cholesterol depletion using 5 mM MβCD. The photophysical characteristics of Di4, including its lifetime, are dependent on lipid packing in membranes. In particular, a lower Di4 lifetime is indicative of loose packing and a more fluid membrane environment whereas higher Di4 lifetimes point to a less fluid membranes and tighter lipid packing. […] The phase separated vesicles were characterized by two populations of lifetimes, corresponding to the Lo phase (higher lifetime) and Ld phase (lower lifetime) (FIGS. 11A-11F).
GPMVs were prepared as previously described by Sezgin, E, et al., Nat Protoc 2012, 7 (6), 1042-51. In brief, HeLa cells were washed twice with GPMV buffer (2 mM CaCl2)/10 mM HEPES/0.15 M NaCl, pH 7.4), then washed twice with GPMV active buffer (GPMV buffer containing 25 mM formaldehyde and 2 mM DTT). Cells were then incubated with GPMV active buffer for 1-2 hours at 37° C. with shaking at 90-95 RPM. The GPMV-containing supernatant was decanted into a centrifuge tube and GPMVs were allowed to settle for 1 h. Aliquots of GPMVs (100 μL) were pipetted from the bottom of the Eppendorf tube into separate tubes and treated with DMSO (0.1%), 1 μM TLCK, 1 μM C6-ceramide or 5 mM MbCD. After 5 min, Di 4 […] (Di4) (Thermo Scientific) was added to a final concentration of […] from a stock solution of 1 mg/mL Di4 in ethanol. The GPMVs were then sandwiched between two coverslips coated with 1 mg/mL bovine serum albumin (BSA) solution and allowed to incubate for an additional 20 min prior to lifetime measurements.
Di4 lifetime images were performed on a Leica TCS SP8 system comprising a Leica DMi8 inverted scanning confocal microscope with time-correlated single photon counting (TC-SPC) system and an 80 MHz-pulsed supercontinuum white light laser which allows continuously tunable excitation in the visible range coupled with filter-free detection. Samples were imaged using an HC PL APO CS2 63X/1.20 water objective. Di4 was excited at 488 nm and the emission was collected in the 550-800 nm range. The photon count rate was kept under 0.5 photons per laser pulse by adjusting the laser power, and sufficient frames were cumulatively acquired to obtain at least 100 photons per pixel. The fluorescence decay curves were fit with a bi-exponential re-convolution function adjusted to the instrument response function, and the average intensity-weighted lifetime was calculated for individual vesicles or area of interest and represented in the FLIM images as Di4 lifetime. Data are reported from two independent experiments. Statistical analyses were performed using GraphPad Prism 9.3.0.

Where a name gives a salt, the structure may show the parent alone.

On to `Clc1ccc2c(c1)CCc1cccnc1C2=C1CCNCC1` [Desloratadine], for which, in assay [1], the “shift of PMP22 phase preference in favor of the ordered (raft) phase” value is approximately 10%, the “hit class in PMP22 screen” value is on record as “Class I” and the “effect on relative ordered (raft) vs. disordered phase proportions” value is given as “without significantly perturbing”.
Consider MβCD, for which the “phase state of GPMVs in FLIM images” value in the assay with GPMVs from HeLa cells (room temperature) is “multiple domains with the same lifetime”. In the assay with GPMVs from HeLa cells (single-phase GPMVs (MβCD: average across all domains), control 2.53±0.06 ns, mean±SD), the “average Di4 lifetime” value came to 1.99±0.09 ns.
As to `CSc1ccc2c(c1)N(CCC1CCCCN1C)c1ccccc1S2` (stereo not drawn) [Thioridazine-HCl], in assay [1], the “shift of PMP22 phase preference in favor of the ordered (raft) phase” value was approximately 10%, the “hit class in PMP22 screen” value is on record as “Class I” and the “effect on relative ordered (raft) vs. disordered phase proportions” value is given as “without significantly perturbing”.
Turning to `CN(C)c1ccc(C(=C2C=CC(=[N+](C)C)C=C2)c2ccc(N(C)C)cc2)cc1` [Crystal violet], in assay [1], the “hit class in PMP22 screen” value is recorded as “false positive”.

(Values after patent US20240085429A1, “ALTERING PROTEIN FUNCTION BY PHARMACOLOGICAL TARGETING OF MEMBRANE DOMAINS” (University of Virginia Patent Foundation, priority 2021, published 2024).)
